Source: article PMC6272548, “Synthesis and Antiplatelet Activity of Antithrombotic Thiourea Compounds: Biological and Structure-Activity Relationship Studies” (Molecules, 2015)
Like-named read-outs stand apart in the source and are kept apart here.

Key:
[1] = system: human platelets; assay: Platelet aggregation of human citrated platelet-rich plasma induced by arachidonic acid (turbidimetric); type: cell-based; conditions: for Antiplatelet activity (in words): AA-induced platelet aggregation
Protocol: The human blood samples were obtained from adult volunteers, who abstained from the use of drugs or other substances that could interfere with the experiment for at least 15 days prior. […] The platelet rich (PRP) and poor (PPP) plasma were prepared by differential centrifugation and platelet aggregation was monitored using the turbidimetric method described by Born and Cross with an aggregometer 4-Pack® (Helena Laboratories, Beaumount, TX, USA). Different concentrations of the synthetic derivatives and the vehicle (DMSO 1%) were pre-incubated for 2 min before addition of the agonists (500 μM arachidonic acid and 5 μg/mL collagen). The platelet aggregation tests were performed in triplicate and the data were statistically analyzed.

[2] = system: Salmonella typhimurium; assay: Reverse mutagenesis to histidine prototrophy (Ames test), spot test; conditions: without metabolic activation; 10 µM, 100 µM and 500 µM
Protocol: This assay was performed as described by Maron and Ames, using the histidine Salmonella typhimurium auxotroph mutant strains TA97, TA98, TA100 and the […] TA102 (Table 5).

[3] = Homo sapiens, Platelet, read-out: IC50, concentration that caused 50% inhibition of platelet aggregation, arachidonic acid-induced (500 μM), human platelet-rich plasma

| Compound | IC50 [1, 3] | Ames Test S. typhimurium TA97 [2] | Ames Test S. typhimurium TA98 [2] | Ames Test S. typhimurium TA100 [2] | Ames Test S. typhimurium TA102 [2] | melting point | Antiplatelet activity (in words) [1] | IC50 ([1]; read-out: IC50, concentration that caused 50% inhibition of platelet aggregation, arachidonic acid-induced (500 μM), human platelet-rich plasma) |
| --- | --- | --- | --- | --- | --- | --- | --- | --- |
| CNC(=S)Nc1ccccc1 [3a, N-Methyl-N'-phenylthiourea] | 308 ± 10.4 µM | - | - | - | - |  |  |  |
| S=C(Nc1ccccc1)NC1CCCCC1 [3b, N-Cyclohexyl-N'-phenylthiourea] | 153 ± 4.5 µM | - | - | - | - | 149 to 151 °C |  |  |
| OCCNC(=S)Nc1ccccc1 [3c, N-(2-Hydroxyethyl)-N'-phenylthiourea] | 170 ± 17.3 µM | - | - | - | - | 139 to 141 °C |  |  |
| COc1cc(NC(=S)Nc2ccccc2)cc(OC)c1OC [3e, N-Phenyl-N'-(3,4,5-trimethoxyphenyl)thiourea] | 251 ± 3.5 µM | - | - | - | - | 164 to 166 °C | lack antiplatelet activity |  |
| S=C(Nc1ccccc1)Nc1ccc2c(c1)OCO2 [3f, N-3,4-Methylenedioxyphenyl-N'-phenylthiourea] | 322 ± 8.9 µM | - | - | - | - | 140 to 142 °C | lack antiplatelet activity |  |
| S=C(Nc1ccccc1)Nc1cccc2ccccc12 [3g, N-α-Naphthyl-N'-phenylthiourea] |  | - | - | - | - |  |  | 142 ± 9 µM |
| CC(C)NC(=S)NCc1ccccc1 [3h, N-Benzyl-N'-isopropylthiourea] | 214 ± 10.2 µM | - | - | - | - | 121 to 123 °C |  |  |
| S=C(NCc1ccccc1)Nc1ccc2c(c1)OCO2 [3j, N-Benzyl-N'-(3,4-methylenedioxyphenyl)thiourea] | 155 ± 3.6 µM | - | - | - | - | 114 to 116 °C |  |  |
| CC(C)NC(=S)NCCc1ccccc1 [3k, N-Isopropyl-N'-(2-phenethyl)thiourea] | 188 ± 10.7 µM | - | - | - | - | 126 to 128 °C |  |  |
| CCCCNC(=S)NCCc1ccccc1 [3l, N-Butyl-N'-(2-phenethyl)thiourea] | 153 ± 15 µM | - | - | - | - | 61 to 63 °C |  |  |
| S=C(NCCc1ccccc1)NC1CCCCC1 [3n, N-Cyclohexyl-N'-(2-phenethyl)thiourea] | 277 ± 42.9 µM | - | - | - | - | 109 to 111 °C |  |  |
| S=C(NCCc1ccccc1)Nc1cccc2ccccc12 [3o, N-(α-Naphthyl)-N'-(2-phenethyl)thiourea] | 157 ± 19.9 µM | - | - | - | - | 155 to 157 °C |  |  |
